US10723704B2, “Pyrazolone derivatives as nitroxyl donors” (Cardioxyl Pharmaceuticals, Inc., priority 2015, dated 2020)
Read-outs that look alike come from different tables or passages of the source.

Test: Pharmacokinetic activity in rats: IV bolus and oral gavage; plasma, brain and CSF levels by LC-MS/MS
Format: in vivo, Male Sprague-Dawley rats
Settings: rat; for Tmax: PO administration of Compound 6, 10 mg/kg, read-out: median Tmax; for presence in brain samples: levels believed due to contamination of brain samples with blood
Method: Male Sprague-Dawley rats (n=3/group) were assigned to Groups 1 to 6. Group 1 was administered an intravenous bolus dose of 1 mg/kg a test compound in 30% polyethyleneglycol-200 (PEG-200): 10% DMSO in saline. Serial samples of blood were collected at 0.05, 0.15, 0.75, 1.5, 3, 6, 10 and 24 hours via an implanted jugular vein catheter. Groups 2-6 received oral gavage doses of a test compound, formulated in 100% PEG300 (10 mg/kg). Rats from groups 2-6 were sacrificed at 0.25, 2, 6, 10 or 24 hours post-dose and blood samples (1 mL via cardiac puncture) were collected into chilled tubes containing K2EDTA as the anticoagulant. CSF and brain tissue were also collected at these time points. Blood samples were immediately centrifuged at 3000 g for 5 minutes under refrigerated conditions (4° C.). Plasmas and CSF samples were mixed with an aqueous solution of ascorbic acid to reach a final concentration of 2%. Brain, plasma and CSF samples were stored at −80° C. until analysis. The test compound and by-product concentrations were determined by LC-MS/MS. The eluent from a reversed-phase gradient (water/acetonitrile both containing 0.1% v/v formic acid) on a 1290 UHPLC system (Agilent Technologies, Stockport, UK) was introduced by positive electrospray ionization into an API6500 mass spectrometer (AB Sciex, Warrington, UK) and analyzed by multiple reaction monitoring (MRM). The lower limit of quantification (LLOQ) was in the range 1-10 ng/mL for the test compound and by-products. The mean plasma concentration-time data for each group were used to calculate pharmacokinetic parameters of the test compound and by-products with the software program Phoenix WinNonlin version 6.4 (Certara L. P., Princeton, N.J.).

[1] = male, Sprague-Dawley, plasma, PO administration of Compound 6, 10 mg/kg in 100% PEG300, mean, read-out: plasma Cmax
[2] = male, Sprague-Dawley, IV bolus 1 mg/kg, plasma

Q: Which results are given for `CC1(NO)C(=O)N(CC(=O)O)N=C1c1ccc(S(C)(=O)=O)cc1` (stereo not shown) [Compound 6a, 2-[4-(hydroxyamino)-3-(4-methanesulfonylphenyl)-4-methyl-5-oxo-4,5-dihydro-1H-pyrazol-1-yl]acetic acid]?
A: Cmax (male, Sprague-Dawley, CSF, PO Compound 6 10 mg/kg, at 2 h, read-out: Cmax in CSF): 0.107 ± 0.033 µg/mL; Cmax (male, Sprague-Dawley, brain, PO Compound 6 10 mg/kg, at 2 h, read-out: Cmax in brain): 85 ± 22 ng/g; Cmax [1]: 5.21 µg/mL; Tmax (male, Sprague-Dawley, plasma): 15 min; amount in brain (PO Compound 6 10 mg/kg): low; plasma concentration relative to parent compound (Compound 6) (PO Compound 6 10 mg/kg, at Cmax (0.25 h)): 700 fold; plasma concentration relative to parent compound (Compound 6) (PO Compound 6 10 mg/kg, by 2 h): 2000 fold; share among drug-related components observed in the samples (after dosing Compound 6): major drug-related component; distribution (after oral dosing of Compound 6): restricted to the periphery; presence in brain samples: Traces

Q: For `CCOC(=O)CN1N=C(c2ccc(S(C)(=O)=O)cc2)C(C)(NO)C1=O` (stereo not shown) [Compound 6, Ethyl 2-[4-(hydroxyamino)-3-(4-methanesulfonylphenyl)-4-methyl-5-oxo-4,5-dihydro-1H-pyrazol-1-yl]acetate], which Kp (male, Sprague-Dawley, CSF, PO 10 mg/kg, 0.25-2 h, read-out: mean CSF:plasma ratio) is on record?
A: Its Kp is 4.

Q: And the Cmax (male, Sprague-Dawley, CSF, PO Compound 6 10 mg/kg, at 0.25 h, read-out: Cmax in CSF)?
A: The Cmax was 0.026 ± 0.018 µg/mL.

Q: And the Kp at 0.25 h (male, Sprague-Dawley, brain, PO 10 mg/kg, 0.25 h, read-out: mean brain:plasma ratio)?
A: The Kp at 0.25 h was 1.1.

Q: What about the Cmax (male, Sprague-Dawley, brain, PO Compound 6 10 mg/kg, at 0.25 h, read-out: Cmax in brain) of the same compound?
A: The Cmax was 8 ± 2 ng/g.

Q: And the clearance (male, Sprague-Dawley, plasma, IV bolus 1 mg/kg in 30% PEG-200:10% DMSO in saline)?
A: The clearance was 2.46 ± 0.12 L/h/kg.

Q: And the Vd (male, Sprague-Dawley, plasma, IV bolus 1 mg/kg, read-out: volume of distribution)?
A: The Vd was 1.1 ± 0.1 L/kg.

Q: And the Cmax [1]?
A: Its Cmax is 0.008 µg/mL.

Q: And the C0 [2]?
A: Its C0 is 0.11 ± 0.01 µg/mL.

Q: What about the half-life [2] of the same compound?
A: Its half-life is 24 ± 0.6 min.

Q: What about the Tmax (male, Sprague-Dawley, plasma) of the same compound?
A: Its Tmax is 15 min.

Q: And the “absorption after oral dosing” value (PO 10 mg/kg)?
A: Its value is “very well absorbed”.

Q: And the metabolism (after oral dosing)?
A: Its metabolism is “rapidly metabolized at the ester function”.

Q: What about the “presence in brain samples” value of the same compound?
A: Its value is “Traces”.

Q: With `CCOC(=O)Cn1nc(-c2ccc(S(C)(=O)=O)cc2)c(C)c1O` [ethyl 2-[5-hydroxy-3-(4-methanesulfonylphenyl)-4-methyl-1H-pyrazol-1-yl]acetate] as the compound, how does the “levels in plasma, brain and CSF (compared with Compound 6a)” value (after dosing Compound 6) read?
A: The value was “much lower levels”.

Q: For `Cc1c(-c2ccc(S(C)(=O)=O)cc2)nn(CC(=O)O)c1O` [2-[5-hydroxy-3-(4-methanesulfonylphenyl)-4-methyl-1H-pyrazol-1-yl]acetic acid], which “levels in plasma, brain and CSF (compared with Compound 6a)” value (after dosing Compound 6) is on record?
A: Its value is “much lower levels”.
